Patent publication US20030050212A1, “Constituent of washing aid having anti-bacterial or the like component” (priority 2001, published 2003)

Key:
[1] = test system: bacteria; experiment: anti-bacterial effect of Ag ions; conditions: Ag ions at 1 ppm concentration
Excerpt: Anti-bacterial material, for example silver ions, of high concentration dispersions towards the low concentration area. By means of a physical stirring and agitating, the anti-bacterial is adsorbed onto the fabric under cleaning.

[2] = oral test LD 50; assay type: in vivo
Excerpt: (§1) In actual application, 1 g of MFS 350 anti-bacterial material into 1 kg of raw material can provide a satisfactory result. Of course, the concentration can be adjusted in accordance with the requirements. In experiment, Ag ions oral test LD 50 is larger than 5000 mg1 kg, lethal test LD 50 is larger than 2000 mg1 Kg, which is relatively safe. […] The preferable metallic powder is powdery particle of nanometer in size having an excellent surface ratio. That is, under the same physical condition, a reaction surface is larger; preferably the physical size is 200 nanometer, preferably in the range of 50 to 100 nanometers.

[3] = lethal test LD 50; conditions: in vivo
Excerpt: as §1

## [Ag+] [Ag ions]
[1]
  anti-bacterial effect: possess anti-bacterial effect
[2]
  oral test LD 50: > 5000 mg1 kg
[3]
  lethal test LD 50: > 2000 mg1 Kg
